In ChEMBL document CHEMBL3045312, “Projuvenoids: synthesis and biological evaluation of sulfenylated, sulfinylated, and sulfonylated carbamates” (Arch Insect Biochem Physiol, 1996):
Calls of active or inactive are those of the source. No cut-off for these calls is given here.

How the values were obtained:
[1] = test system: Pieris brassicae; assay: Juvenile hormone mimicking activity against fifth-instar larval stage of Pieris brassicae reared on cabbage plants assessed as morphogenetic changes measured per larvae applied topically to dorsal surface of larvae measured post pupal ecdysis; type: functional
[2] = test system: Sitophilus oryzae; assay: Juvenile hormone mimicking activity against adult Sitophilus oryzae (rice weevil) infested wheat kernels assessed as suppression of progeny development at 1 ppm applied through diet for 21 days measured after 9 weeks; type: functional, organism-based
[3] = test system: Pieris brassicae; assay: Ratio of fenoxycarb ID50 to compound ID50 for fifth-instar larval stage of Pieris brassicae; type: functional
[4] = test system: Sitophilus oryzae; assay: Juvenile hormone mimicking activity against adult Sitophilus oryzae (rice weevil) infested wheat kernels assessed as suppression of progeny development at 1 to 100 ppm applied through diet for 21 days measured after 9 weeks; type: functional, organism-based
[5] = test system: Bemisia tabaci; assay: Juvenile hormone mimicking activity against Bemisia tabaci (sweet potato whitefly) infested cotton assessed as suppression of nymph emergence at 400 g/ha applied as wettable powder through spray measured on day 12 under field conditions (reference value: 92%); type: functional
[6] = test system: Bemisia tabaci; assay: Juvenile hormone mimicking activity against Bemisia tabaci (sweet potato whitefly) infested cotton assessed as suppression of nymph emergence at 100 g/ha applied as wettable powder through spray measured on day 12 under field conditions (reference value: 92%); type: functional
[7] = Lipophilicity, log P of the compound; type: physicochemical; settings: octanol/water
[8] = test system: Bemisia tabaci; assay: Juvenile hormone mimicking activity against Bemisia tabaci (sweet potato whitefly) infested cotton assessed as suppression of adult emergence at 400 g/ha applied as wettable powder through spray measured on day 12 under field conditions (reference value: 89%); type: functional
[9] = test system: Bemisia tabaci; assay: Juvenile hormone mimicking activity against Bemisia tabaci (sweet potato whitefly) infested cotton assessed as suppression of nymph emergence at 200 g/ha applied as wettable powder through spray measured on day 12 under field conditions (reference value: 92%); type: functional
[10] = test system: Bemisia tabaci; assay: Juvenile hormone mimicking activity against Bemisia tabaci (sweet potato whitefly) infested cotton assessed as suppression of adult emergence at 100 g/ha applied as wettable powder through spray measured on day 12 under field conditions (reference value: 89%); type: functional
[11] = test system: Bemisia tabaci; assay: Juvenile hormone mimicking activity against Bemisia tabaci (sweet potato whitefly) infested cotton assessed as suppression of adult emergence at 200 g/ha applied as wettable powder through spray measured on day 12 under field conditions (reference value: 89%); type: functional
[12] = test system: Bemisia tabaci; assay: Juvenile hormone mimicking activity against Bemisia tabaci (sweet potato whitefly) infested cotton assessed as suppression of adult emergence at 50 g/ha applied as emulsifiable concentrate through spray measured on day 12 under field conditions (reference value: 89%); type: functional
[13] = test system: Bemisia tabaci; assay: Juvenile hormone mimicking activity against Bemisia tabaci (sweet potato whitefly) infested cotton assessed as suppression of nymph emergence at 100 g/ha applied as emulsifiable concentrate through spray measured on day 12 under field conditions (reference value: 92%); type: functional
[14] = test system: Bemisia tabaci; assay: Juvenile hormone mimicking activity against Bemisia tabaci (sweet potato whitefly) infested cotton assessed as suppression of adult emergence at 100 g/ha applied as emulsifiable concentrate through spray measured on day 12 under field conditions (reference value: 89%); type: functional
[15] = test system: Bemisia tabaci; assay: Juvenile hormone mimicking activity against Bemisia tabaci (sweet potato whitefly) infested cotton assessed as suppression of nymph emergence at 200 g/ha applied as emulsifiable concentrate through spray measured on day 12 under field conditions (reference value: 92%); type: functional
[16] = test system: Bemisia tabaci; assay: Juvenile hormone mimicking activity against Bemisia tabaci (sweet potato whitefly) infested cotton assessed as suppression of nymph emergence at 50 g/ha applied as emulsifiable concentrate through spray measured on day 12 under field conditions (reference value: 92%); type: functional
[17] = test system: Bemisia tabaci; assay: Juvenile hormone mimicking activity against Bemisia tabaci (sweet potato whitefly) infested cotton assessed as suppression of adult emergence at 200 g/ha applied as emulsifiable concentrate through spray measured on day 12 under field conditions (reference value: 89%); type: functional

Row | Compound | ID50 [1] [ng] | Activity [2] | also measured
1 | CCOC(=O)NCCOc1ccc(Oc2ccc(Cl)cc2)cc1 | 22 | – | –
2 | CCOC(=O)N(CCOc1ccc(Oc2ccc(Cl)cc2)cc1)[S+]([O-])N(CCOc1ccc(Oc2ccc(Cl)cc2)cc1)C(=O)OCC | 9 | – | –
3 | CCCCCCCCCCCCOC(=O)N(CCCC)SN(CCOc1ccc(Oc2ccccc2)cc1)C(=O)OCC | 2.8 | Active | Ratio [3]: 6
4 | CCOC(=O)CC(SP(=S)(OC)OC)C(=O)OCC (configuration not stated) | – | – | Activity [4]: Active
5 | CCOC(=O)NCCOc1ccc(Oc2ccccc2)cc1 [PHENOXYCARB] | 21 | Active | Activity [5]: 21%; Activity [6]: 41%; logP [7]: 4.07; Activity [8]: 20%; Activity [9]: 34%; Activity [10]: 43%; Activity [11]: 29%
6 | CC(C)OC(=O)NCCOc1ccc(Oc2ccccc2)cc1 | 24 | – | –
7 | CCOC(=O)N(CCOc1ccc(Oc2ccccc2)cc1)[S+]([O-])N(CCOc1ccc(Oc2ccccc2)cc1)C(=O)OCC | 2.2 | Active | Activity [12]: 36%; Activity [13]: 33%; Activity [14]: 31%; Activity [15]: 16%; Activity [16]: 47%; Activity [17]: 19%
8 | COC(C)(C)CCC[C@H](C)C/C=C/C(C)=C/C(=O)OC(C)C [METHOPRENE] | 60 | – | logP [7]: 5.21; Activity [4]: Active
9 | CCOC(=O)N(CCOc1ccc(Oc2ccc(Cl)cc2)cc1)SN(CCOc1ccc(Oc2ccc(Cl)cc2)cc1)C(=O)OCC | 26 | – | –
10 | CCCCCCCCOC(=O)N(C)SN(CCOc1ccc(Oc2ccccc2)cc1)C(=O)OCC | 3.4 | – | Ratio [3]: 6
11 | CCOC(=O)N(CCOc1ccc(Oc2ccccc2)cc1)S(=O)(=O)N(CCOc1ccc(Oc2ccccc2)cc1)C(=O)OCC | >100 | – | –
12 | CCCCCCCCCCCCCCCCCN(SN(CCOc1ccc(Oc2ccccc2)cc1)C(=O)OCC)C(=O)OCc1ccccc1 | 6.4 | Active | –
13 | CCOC(=O)N(CCOc1ccc(Oc2ccccc2)cc1)SN(CCOc1ccc(Oc2ccccc2)cc1)C(=O)OCC | 2.8 | Active | –
14 | CC(C)OC(=O)N(CCOc1ccc(Oc2ccccc2)cc1)[S+]([O-])N(CCOc1ccc(Oc2ccccc2)cc1)C(=O)OC(C)C | 20 | – | –
15 | CC(C)OC(=O)N(CCOc1ccc(Oc2ccccc2)cc1)SN(CCOc1ccc(Oc2ccccc2)cc1)C(=O)OC(C)C | 22 | – | –
